Results: article PMC3060082 (Journal of medicinal chemistry, 2010)

Key:
[1] = system: NAADP receptor; assay: Ca2+ release from Ca2+ loaded sea urchin egg homogenates; assay type: biochemical, sea urchin (Strongylocentrotus purpuratus); conditions: for potency for Ca2+ release compared to NAADP (fold less potent): text summary of concentration response curves, Figure 2 / Table 3; for Fold increase in EC50: relative to NAADP (1); for concentration as low as which calcium-ion release is induced: Figure 1 traces; for amount of calcium release at saturating concentrations: compared with NAADP
[2] = system: NAADP receptor; assay: Competition ligand binding with [32P]NAADP in sea urchin egg homogenate; conditions: assay not specified
[3] = system: NAADP receptor; assay type: biochemical, sea urchin; conditions: 9 min pretreatment at 1 nM or higher (subthreshold concentration)

SMILES	potency for Ca2+ release compared to NAADP (fold less potent) [1]	loss of potency relative to NAADP [2]	Fold increase in EC50 [1]	also measured
Cc1cc[n+]([C@H]2O[C@@H](COP(=O)(O)OP(=O)(O)OC[C@H]3O[C@@H](n4cnc5c(N)ncnc54)[C@H](OP(=O)(O)O)[C@@H]3O)[C@H](O)[C@@H]2O)cc1C(=O)[O-] [compound 17, 4-methyl-NAADP]	two hundred to two thousand fold less potent	100 to 200 fold		potency for Ca2+ release compared with the 5-isomer 21 ([1]; Figure 1): significantly less potent
Nc1ncnc2c1ncn2[C@@H]1O[C@H](COP(=O)(O)OP(=O)(O)OC[C@@H]2O[C@H]([n+]3ccc(-c4ccccc4)c(C(=O)[O-])c3)[C@@H](O)[C@H]2O)[C@@H](O)[C@H]1OP(=O)(O)O [compound 19, 4-phenyl-NAADP]			> 50,000 fold	
[N-]=[N+]=Nc1cc(C(=O)[O-])c[n+]([C@H]2O[C@@H](COP(=O)(O)OP(=O)(O)OC[C@H]3O[C@@H](n4cnc5c(N)ncnc54)[C@H](OP(=O)(O)O)[C@@H]3O)[C@H](O)[C@@H]2O)c1 [compound 24, 5-azido-NAADP]	10 to 100 fold			
Nc1cc[n+]([C@H]2O[C@@H](COP(=O)(O)OP(=O)(O)OC[C@H]3O[C@@H](n4cnc5c(N)ncnc54)[C@H](OP(=O)(O)O)[C@@H]3O)[C@H](O)[C@@H]2O)cc1C(=O)[O-] [compound 16, 4-amino-NAADP]	two hundred to two thousand fold less potent	100 to 200 fold		
CCc1cc(C(=O)[O-])c[n+]([C@H]2O[C@@H](COP(=O)(O)OP(=O)(O)OC[C@H]3O[C@@H](n4cnc5c(N)ncnc54)[C@H](OP(=O)(O)O)[C@@H]3O)[C@H](O)[C@@H]2O)c1 [compound 23, 5-ethyl-NAADP]	10 to 100 fold	20 fold		
Nc1cc(C(=O)[O-])c[n+]([C@H]2O[C@@H](COP(=O)(O)OP(=O)(O)OC[C@H]3O[C@@H](n4cnc5c(N)ncnc54)[C@H](OP(=O)(O)O)[C@@H]3O)[C@H](O)[C@@H]2O)c1 [compound 20, 5-amino-NAADP]	approximately equipotent with NAADP	only slightly less potent than is NAADP itself		concentration as low as which calcium-ion release is induced [1]: 2 nM; amount of calcium release at saturating concentrations [1]: same amount of calcium release as did the full agonist NAADP
CCCCc1cc[n+]([C@H]2O[C@@H](COP(=O)(O)OP(=O)(O)OC[C@H]3O[C@@H](n4cnc5c(N)ncnc54)[C@H](OP(=O)(O)O)[C@@H]3O)[C@H](O)[C@@H]2O)cc1C(=O)[O-] [compound 18, 4-n-butyl-NAADP]			> 50,000 fold	
Cc1cc(C(=O)[O-])c[n+]([C@H]2O[C@@H](COP(=O)(O)OP(=O)(O)OC[C@H]3O[C@@H](n4cnc5c(N)ncnc54)[C@H](OP(=O)(O)O)[C@@H]3O)[C@H](O)[C@@H]2O)c1 [compound 21, 5-methyl-NAADP]	approximately equipotent with NAADP	only slightly less potent than is NAADP itself		concentration as low as which calcium-ion release is induced [1]: 2 nM; amount of calcium release at saturating concentrations [1]: same amount of calcium release as did the full agonist NAADP; receptor desensitization to 1 μM NAADP after pretreatment [3]: same characteristic receptor desensitization as does NAADP itself
Nc1ncnc2c1ncn2[C@@H]1O[C@H](COP(=O)(O)OP(=O)(O)OC[C@@H]2O[C@H]([n+]3cc(C(=O)[O-])cc(C(=O)O)c3)[C@@H](O)[C@H]2O)[C@@H](O)[C@H]1OP(=O)(O)O [compound 22, 5-carboxy-NAADP]			> 50,000 fold	
